These results are taken from PubChem BioAssay (NCI).

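1) Cells in 96-well plates. 2) Compound, 48 h, 5 concentrations. 3) Linear interpolation between surrounding doses. 4) Unreached endpoint = highest concentration. TGI: total growth inhibition.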 Some results are limits rather than exact numbers.

Some test systems named below: 786-0 renal; MDA-N; MOLT-4 leukemia; M14 melanoma; A549 NSCLC; BT-549 breast; SW-620 colon; A498 renal; NCI-H226 lung; SR leukemia; SK-MEL-28 melanoma; SNB-75 CNS; ACHN renal; NCI-H522 lung; U251 CNS; HT29 colon.
What all share (test): growth of human tumour cells (NCI), 48 h

In the case of `CC(=O)O[C@H]1C(=O)[C@@]2(C)[C@H]([C@H](OC(=O)c3cccc([N+](=O)[O-])c3)[C@]3(O)C[C@H](OC(=O)[C@H](O)[C@@H](NC(=O)c4ccccc4)c4ccccc4)C(C)=C1C3(C)C)[C@]1(OC(C)=O)CO[C@@H]1C[C@@H]2O`, the TGI in the assay with 786-0 renal was greater than 25 µM; in the assay on MDA-N, 0.0115 µM; in the assay with MOLT-4 leukemia it was greater than 20.3 µM; in the assay with M14 melanoma, 8.52 µM; in the assay on A549 NSCLC, greater than 25 µM; in the assay on BT-549 breast, greater than 25 µM. In addition, the TGI is greater than 25 µM with SW-620 colon; 18.5 µM with A498 renal; greater than 25 µM with NCI-H226 lung; 0.113 µM in the assay on SR leukemia; greater than 25 µM in the assay on SK-MEL-28 melanoma; 0.295 µM in the assay on SNB-75 CNS. Moreover, the TGI is greater than 25 µM in the assay with ACHN renal and 0.0161 µM in the assay on NCI-H522 lung.
As to `CC#CC(O)(C(=O)OCCCN(C)C)C1CCCCC1` (configuration not stated), the TGI in the assay with 786-0 renal, with MDA-N, in the assay on MOLT-4 leukemia, with M14 melanoma, with U251 CNS and in the assay on HT29 colon was greater than 100 µM each time. For the same molecule, the TGI in the assay with A549 NSCLC, in the assay with BT-549 breast, in the assay with SW-620 colon, in the assay with A498 renal, in the assay with NCI-H226 lung and in the assay on SR leukemia was greater than 100 µM throughout. Moreover, the TGI in the assay on SK-MEL-28 melanoma, in the assay on SNB-75 CNS and in the assay with ACHN renal was greater than 100 µM in each case.
On to `COC(=O)C(N)CCCC(N)C(=O)NC(C)C(=O)NC(CCC(=O)NCCNCCNc1c2ccccc2nc2cccc([N+](=O)[O-])c12)C(N)=O` (configuration not stated), for which the TGI with 786-0 renal was greater than 31 µM; with MDA-N, 28.1 µM; in the assay with MOLT-4 leukemia, greater than 100 µM; in the assay on M14 melanoma, 26.2 µM; in the assay on U251 CNS, greater than 41.1 µM; in the assay with HT29 colon, 47.7 µM. In addition, the TGI was greater than 43.6 µM in the assay with A549 NSCLC; 38.5 µM in the assay on BT-549 breast; 47.3 µM in the assay with SW-620 colon; 40.3 µM in the assay with A498 renal; 39.4 µM in the assay with NCI-H226 lung; greater than 100 µM with SR leukemia. Moreover, the TGI with SK-MEL-28 melanoma was 31.1 µM; in the assay on SNB-75 CNS, 26.1 µM; with ACHN renal, greater than 61.1 µM.
With `COc1ccc(N=N/C(=N/NC(=O)c2ccc(C)cc2)c2ccc(N(CCC#N)CCC#N)cc2OC)cc1`, the TGI in the assay on 786-0 renal, in the assay on MDA-N, in the assay with MOLT-4 leukemia, in the assay on M14 melanoma, in the assay on U251 CNS and in the assay with HT29 colon was greater than 100 µM each time. Also, the TGI in the assay on A549 NSCLC, in the assay with BT-549 breast, in the assay on SW-620 colon, with A498 renal, in the assay on NCI-H226 lung and with SR leukemia was greater than 100 µM in each case. Further, the TGI in the assay with SK-MEL-28 melanoma, in the assay on ACHN renal and in the assay with NCI-H522 lung was greater than 100 µM throughout.
As to `O=C(O[C@@H](/C=C/c1ccccc1)P1(=O)N(Cc2ccccc2)[C@H]2CCCC[C@@H]2N1Cc1ccccc1)c1ccccc1`, the TGI was greater than 100 µM in the assay with 786-0 renal; greater than 100 µM with MDA-N; greater than 100 µM with M14 melanoma; 11.1 µM in the assay on U251 CNS; greater than 100 µM in the assay on HT29 colon; greater than 100 µM in the assay with A549 NSCLC. The TGI in the assay with BT-549 breast was greater than 100 µM; in the assay with SW-620 colon, greater than 100 µM; in the assay on A498 renal it was 8.43 µM; in the assay on NCI-H226 lung, 13.2 µM; with SR leukemia it was 13.8 µM; in the assay on SK-MEL-28 melanoma, greater than 100 µM. Moreover, the TGI in the assay with SNB-75 CNS was greater than 100 µM; with ACHN renal, 6.91 µM; in the assay with NCI-H522 lung it was greater than 100 µM.
As to `O=c1oc2ccccc2nc1/C=C(\O)c1ccc(Cl)cc1`, the TGI with 786-0 renal, in the assay with MDA-N, with MOLT-4 leukemia, in the assay on M14 melanoma, in the assay with U251 CNS and in the assay on HT29 colon was greater than 100 µM in each case. The TGI with A549 NSCLC, in the assay on BT-549 breast, with A498 renal, in the assay on NCI-H226 lung, in the assay with SR leukemia and with SNB-75 CNS was greater than 100 µM in each case. In addition, the TGI with ACHN renal and in the assay on NCI-H522 lung was greater than 100 µM each time.
`C[C@@H](c1ccccc1)n1c(N)c(-c2ccccn2)c2ccc([N+](=O)[O-])cc2c1=O`: the TGI in the assay with 786-0 renal, in the assay on MDA-N, with U251 CNS, with HT29 colon, with A549 NSCLC and in the assay on BT-549 breast was greater than 100 µM each time. Moreover, the TGI is greater than 100 µM in the assay with SW-620 colon; 65.5 µM in the assay on A498 renal; greater than 100 µM in the assay on NCI-H226 lung; greater than 100 µM with SR leukemia; greater than 100 µM with SK-MEL-28 melanoma; 63 µM with SNB-75 CNS. Besides, the TGI in the assay on ACHN renal and with NCI-H522 lung was greater than 100 µM in each case.
